In patent US20120093947A1, “METHOD OF TREATING REACTIVE AIRWAY DISEASE” (UNITED STATES DEPARTMENT OF VETERANS AFFAIRS, priority 2009, published 2012):
Like-named read-outs stand apart in the source and are kept apart here.

What was measured:
MPO = MPO (Homo sapiens, UniProt P05164); test: EPR of MNP adducts with radicals from β2-agonists generated by MPO/H2O2; assay type: biochemical; parameters: Myeloperoxidase (MPO) from human leucocytes (lyophilized powder); purchased Axxora, LLC (San Diego, Calif.); host or cells: human leucocytes (natural source)
MPO, sequence (P05164 279-745 limits assumed): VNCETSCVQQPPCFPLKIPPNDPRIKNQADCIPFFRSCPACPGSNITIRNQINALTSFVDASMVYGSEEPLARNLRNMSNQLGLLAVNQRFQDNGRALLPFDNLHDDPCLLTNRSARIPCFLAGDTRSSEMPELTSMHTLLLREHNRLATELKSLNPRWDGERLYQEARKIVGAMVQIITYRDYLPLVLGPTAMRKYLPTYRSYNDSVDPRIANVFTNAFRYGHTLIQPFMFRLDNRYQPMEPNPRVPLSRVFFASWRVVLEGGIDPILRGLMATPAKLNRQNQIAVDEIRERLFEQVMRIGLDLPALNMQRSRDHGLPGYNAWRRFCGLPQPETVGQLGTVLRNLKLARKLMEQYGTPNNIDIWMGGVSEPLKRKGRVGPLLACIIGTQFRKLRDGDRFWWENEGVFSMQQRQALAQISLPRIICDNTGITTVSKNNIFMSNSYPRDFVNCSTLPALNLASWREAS
MPO, sequence (P05164 165-273 limits assumed): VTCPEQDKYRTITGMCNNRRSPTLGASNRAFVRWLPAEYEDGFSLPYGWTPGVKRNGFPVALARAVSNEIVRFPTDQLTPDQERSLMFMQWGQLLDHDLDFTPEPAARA
Method: (§1) Formation of free radicals from β2-agonists is studied in samples prepared in 100 mM phosphate buffer (pH 7.0 and 8.0)/DTPA (0.2 mM) (total volume 250 μL) containing MNP, MPO (or LPO) and the agonists. The reaction is initiated by the addition of H2O2 as the last component. In experiments in which H2O2 was generated using glucose (1 mM) and glucose oxidase (3.9 μg/mL), glucose oxidase is added as a last component. The sample is transferred to a flat aqueous EPR cell and recording is started 1 minute after initiation of the reaction. Typically, spectra of MNP adducts are recorded using microwave power 20 mW, modulation amplitude 0.1 mT, receiver gain 2×10^5, conversion time 40.96 ms, time constant 81.92 ms, and scan rate of 10 mT/41.92 s. EPR spectra constitute an average of 5 scans and represent results of typical experiments. Unless stated otherwise, direct EPR measurements (spin traps omitted) of free radicals derived from β2-agonists are performed using conditions similar to those for the detection of MNP adducts. EPR spectra are simulated using WINSIM software developed at NIEHS/NIH (RTP, NC).
(§2) The effect of methimazole and dapsone on the formation of free radicals from drugs is studied in phosphate buffers (pH 7.0 and 8.0) containing DTPA (0.2 mM) and MNP (10 mM in dimers). Oxidation is carried out by MPO (0.43 units/mL)/H2O2 (37 μM) and LPO (0.39 μM)/glucose (1 mM)/glucose oxidase (0.8 μg/mL). […]
(§3) Table 3, below, summarizes the effects of dapsone and methimazole on EPR spectra of MNP adducts with radicals from fenoterol and terbutaline generated by MPO/H2O2 and LPO/H2O2 systems at a pH of 8.0. Concentrations of MNP spin adducts were calculated as second integrals of the low-field component of the respective spectra and are expressed as % of control samples (no additives). Results equal the means±SE of at least two measurements.
(§4) . […] This is consistent with the known inhibitory action of both methimazole and dapsone on LPO activity and only methimazole on MPO activity. Thomas et al. (1994) J. Dent. Res. 73(2):544-55. Results obtained at pH 7.0 qualitatively agree with those at pH 8.0.

LPO = biological target: T1, LPO (Bos taurus, UniProt P80025); test: EPR of MNP adducts with radicals from β2-agonists generated by LPO/H2O2; assay type: biochemical, bovine; settings: pH 8.0
T1 construct: Lactoperoxidase (LPO) from bovine milk (EC 1.11.1.7); purchased Sigma-Aldrich Co. (St. Louis, Mo.); host or cells: bovine milk (natural source)
Method: as §1, §2, §3, §4

Row | SMILES | Effect on MPO activity (formation of radicals from fenoterol and terbutaline, MPO system) (MPO; inhibitor 1 mM, MPO/H2O2) | Concentration of MNP spin adducts, Fenoterol, +LPO + H2O2, % of control (LPO; fenoterol 0.047 mM, inhibitor 1 mM, reagent H2O2 37 μM) | remaining activity at 1000 µM (LPO; fenoterol 0.047 mM, inhibitor 1 mM, reagent H2O2 37 μM, read-out: Concentration of MNP spin adducts, Fenoterol, +LPO + H2O2, % of control) [%] | Concentration of MNP spin adducts, Terbutaline, +LPO + H2O2, % of control (LPO; terbutaline 0.047 mM, inhibitor 1 mM, reagent H2O2 37 μM) | remaining activity at 1000 µM (LPO; terbutaline 0.047 mM, inhibitor 1 mM, reagent H2O2 37 μM, read-out: Concentration of MNP spin adducts, Terbutaline, +LPO + H2O2, % of control) [%] | Concentration of MNP spin adducts, Fenoterol, +MPO + H2O2, % of control (MPO; fenoterol 0.47 mM, inhibitor 0.86 mM, reagent H2O2 37 μM, pH 8.0) | remaining activity at 860 µM (MPO; fenoterol 0.47 mM, inhibitor 0.86 mM, reagent H2O2 37 μM, pH 8.0, read-out: Concentration of MNP spin adducts, Fenoterol, +MPO + H2O2, % of control) [%] | Concentration of MNP spin adducts, Terbutaline, +MPO + H2O2, % of control (MPO; terbutaline 0.47 mM, inhibitor 0.86 mM, reagent H2O2 37 μM, pH 8.0) | remaining activity at 860 µM (MPO; terbutaline 0.47 mM, inhibitor 0.86 mM, reagent H2O2 37 μM, pH 8.0, read-out: Concentration of MNP spin adducts, Terbutaline, +MPO + H2O2, % of control) [%] | Concentration of MNP spin adducts, Fenoterol, +LPO + H2O2, % of control (LPO; fenoterol 0.47 mM, inhibitor 0.86 mM, H2O2 from glucose 1 mM/glucose oxidase 0.8 μg/mL) | remaining activity at 860 µM (LPO; fenoterol 0.47 mM, inhibitor 0.86 mM, H2O2 from glucose 1 mM/glucose oxidase 0.8 μg/mL, read-out: Concentration of MNP spin adducts, Fenoterol, +LPO + H2O2, % of control) [%] | Concentration of MNP spin adducts, Terbutaline, +LPO + H2O2, % of control (LPO; terbutaline 0.47 mM, inhibitor 0.86 mM, H2O2 from glucose 1 mM/glucose oxidase 0.8 μg/mL) | remaining activity at 860 µM (LPO; terbutaline 0.47 mM, inhibitor 0.86 mM, H2O2 from glucose 1 mM/glucose oxidase 0.8 μg/mL, read-out: Concentration of MNP spin adducts, Terbutaline, +LPO + H2O2, % of control) [%]
1 | Nc1ccc(S(=O)(=O)c2ccc(N)cc2)cc1 [Dapsone, diamino-diphenyl sulfone] | only a minimal effect | markedly inhibit | 13.9 ± 0.6 | markedly inhibit | 54.6 ± 20 |  |  |  |  |  |  |  | 
2 | Cn1cc[nH]c1=S [Methimazole, 1-methyl-3H-imidazole-2-thione] |  |  |  |  |  | inhibitory | 22.4 ± 0.6 | inhibitory | 33.5 ± 3.5 | markedly inhibit | 26.9 ± 8.2 | markedly inhibit | 33.9
